Laboratory results reported in EP1479389B1, “Ready to use gemcitabine solutions” (STADA ARZNEIMITTEL AG, priority 2003, dated 2004).

Columns and labels:
Format in all cases: physicochemical
[1] = Temperature-dependent storage stability of gemcitabine solutions pH 4,0, content by HPLC; conditions: 10 mg/ml
Experimental: Zur weiteren Bestimmung der Temperatur-Abhängigkeit der Stabilität von erfindungsgemäßen Gemcitabin-Lösungen mit einem pH-Wert von ca. 4,0, wurden wie zuvor beschrieben Lösungen, deren pH-Wert mit 1 N Natronlauge eingestellt wurde, mit einer Gemcitabin-Konzentration von 10 mg/ml (in Wasser für Injektionszwecke) hergestellt. Diese wurden über einen Zeitraum von 12 Monaten gelagert. In dieser Zeit wurde die Wirkstoffkonzentration in regelmäßigen Abständen mittels HPLC bestimmt. Tabelle 3: Temperatur-abhängige Stabilität von Gemcitabin-Lösungen (c(Gemcitabin) = 10 mg/ml entsprechend 11,39 mg Gemcitabinhydrochlorid pro ml Wasser, pH 4,0)

[2] = pH-dependent visible crystallisation of concentrated gemcitabine solutions; conditions: pH 5,0; 25°C; c=52,7 mg Gemcitabin/ml
[3] = Regressive extrapolation of the Table 6 storage stability data to 1-4 years; conditions: 10 mg/ml in aqueous solution, pH ca. 8; Lagertemperatur 25°C
Experimental: Eine regressive Extrapolation der in Tabelle 6 angegebenen Daten ergab folgende in Tabelle 7 aufgeführte Lagerstabilitäten. Tabelle 7 : Stabilität von Gemcitabin-Lösungen mit pH = 8,0 bei 25°C, 40°C und 60°C bei einer Lagerzeit von 1-4 Jahren

[4] = pH-dependent visible crystallisation of concentrated gemcitabine solutions; conditions: c=52,7mg Gemcitabin/ml
Experimental: Zur Bestimmung der tatsächlichen, pH-abhängigen Löslichkeit von Gemcitabin in wässrigen Lösungen wurden entsprechend Beispiel 1 konzentrierte Gemcitabin-Lösungen (c=52,7 mg Gemcitabin/ml entsprechend 60mg Gemcitabinhydrochlorid pro ml Wasser; 5 ml/Vial) hergestellt, deren pH-Wert mit q.s. 1 N Natronlauge auf pH-Werte von 2,0 bis 5,0 eingestellt wurde. Die so erhaltenen Lösungen wurden bei einer Lagertemperatur von 2-8°C gelagert.
Tabelle 2: Stabilität von konzentrierten Gemcitabin-Lösungen vs. Auskristallisation des Wirkstoffs

[5] = Visible precipitation of aqueous gemcitabine solutions on storage (solubility, initial pH ca. 4,0); conditions: water, pH 4, water, 2-8°C storage, no solubility enhancers, read-out: Gehalt klarer partikelfreier Gemcitabinlösungen
Experimental: Zur Bestimmung der Löslichkeit von Gemcitabin in wässrigen Lösungen (bei T = 25°C und T = 2-8°C, Anfangs-pH-Wert = 4,0) wurde Gemcitabinhydrochlorid in Wasser für Injektionszwecke bei 25°C gelöst (c(Gemcitabin) = 55,2 mg/ml entsprechend 62,8 mg Gemcitabinhydrochlorid pro ml Wasser sowie c(Gemcitabin) = 10,0mg/ml entsprechend 11,38 mg Gemcitabinhydrochlorid pro ml Wasser) und der pH-Wert mit q.s. 1 N Natronlauge / q.s. 1 N Salzsäure eingestellt.
Aus dem so gewonnenen Ansatz wurden mit Wasser für Injektionszwecke verdünnte Lösungen hergestellt und potentiometrisch deren pH-Wert bestimmt. Die hergestellten Lösungen wurden jeweils als 5ml-Aliquote in mit Durchstechstopfen dicht verschlossenen Vials abgefüllt. Diese Proben wurden nach Lagerung bei 2-8°C bzw. bei 25°C auf sichtbare Auskristallisation des Wirkstoffs geprüft ("+" Niederschlag; "-" klar und partikelfrei) und ihr pH-Wert bestimmt. Tabelle 1: Niederschlagbildung in 25°C und 2-8°C-gelagerter Gemcitabinlösungen (Anfangs-pH ca. 4,0)

Nc1ccn([C@@H]2O[C@H](CO)[C@@H](O)C2(F)F)c(=O)n1 [Gemcitabin, 2'-Deoxy-2',2'-difluorcytidin]
Gehalt ([1]; 5°C, 0 mon): 100,0 rel.%
Gehalt ([1]; 5°C, 3 mon, 129600 min): 99,7 rel.%
Gehalt ([1]; 5°C, 6 mon, 259200 min): 99,4 rel.%
Gehalt ([1]; 5°C, 9 mon, 388800 min): 99,2 rel.%
Gehalt ([1]; 5°C, 12 mon, 518400 min): 99,0 rel.%
Gehalt ([1]; 15°C, 0 mon): 100,0 rel.%
Gehalt ([1]; 15°C, 3 mon, 129600 min): 99,6 rel.%
Gehalt ([1]; 15°C, 6 mon, 259200 min): 99,2 rel.%
Gehalt ([1]; 15°C, 9 mon, 388800 min): 98,8 rel.%
Gehalt ([1]; 15°C, 12 mon, 518400 min): 98,3 rel.%
Gehalt ([1]; 25°C, 0 mon): 100,0 rel.%
Gehalt ([1]; 25°C, 3 mon, 129600 min): 97,1 rel.%
Gehalt ([1]; 25°C, 6 mon, 259200 min): 94,1 rel.%
Auskristallisation [2]: spontane (pH 5,0; 25°C) Auskristallisation
Dauer, über die die Lösungen stabil sind [3]: ≥ 3 Jahren
Sichtbare Auskristallisation ([4]; pH 2,0, nach 1 Tag (2-8°C)): +
Sichtbare Auskristallisation ([4]; pH 2,0, nach 2 Tagen (2-8°C)): +
Sichtbare Auskristallisation ([4]; pH 2,0, nach 3 Tagen (2-8°C)): +
Sichtbare Auskristallisation ([4]; pH 2,0, nach 7 Tagen (2-8°C)): +
Sichtbare Auskristallisation ([4]; pH 2,0, nach 14 Tagen (2-8°C)): +
Sichtbare Auskristallisation ([4]; pH 2,5, nach 1 Tag (2-8°C)): -
Sichtbare Auskristallisation ([4]; pH 2,5, nach 2 Tagen (2-8°C)): +
Sichtbare Auskristallisation ([4]; pH 2,5, nach 3 Tagen (2-8°C)): +
Sichtbare Auskristallisation ([4]; pH 2,5, nach 7 Tagen (2-8°C)): +
Sichtbare Auskristallisation ([4]; pH 2,5, nach 14 Tagen (2-8°C)): +
Sichtbare Auskristallisation ([4]; pH 3,0, nach 1 Tag (2-8°C)): -
Sichtbare Auskristallisation ([4]; pH 3,0, nach 2 Tagen (2-8°C)): +
Sichtbare Auskristallisation ([4]; pH 3,0, nach 3 Tagen (2-8°C)): +
Sichtbare Auskristallisation ([4]; pH 3,0, nach 7 Tagen (2-8°C)): +
Sichtbare Auskristallisation ([4]; pH 3,0, nach 14 Tagen (2-8°C)): +
Sichtbare Auskristallisation ([4]; pH 3,5, nach 1 Tag (2-8°C)): -
Sichtbare Auskristallisation ([4]; pH 3,5, nach 2 Tagen (2-8°C)): -
Sichtbare Auskristallisation ([4]; pH 3,5, nach 3 Tagen (2-8°C)): -
Sichtbare Auskristallisation ([4]; pH 3,5, nach 7 Tagen (2-8°C)): -
Sichtbare Auskristallisation ([4]; pH 3,5, nach 14 Tagen (2-8°C)): -
solubility [5]: ~10 mg/mL
